Laboratory results published in ChEMBL document CHEMBL3430912, “GSK Tres Cantos Anti-Kinetoplastid Screening (TCAKS) Data”.

Tests used:
[1] = tested on: Leishmania donovani; assay: GSK_TCAKS: pIC50 Leishmania donovani viability assay using fluorescence intensity. Assay plates (1536-well) were prepared by adding 30nL per well of compound. For single shot assay, the final compound concentration was 5uM. […] Briefly, eGFP LdBOB axenic amastigotes were harvested, fixed and counted in a CASY cell counter (Roche-Applied Science). A final concentration of 1.5 * 10^5 cells per well were prepared in amastigote media containing 500 U/mL penicillin/streptomycin (Invitrogen) and 6uL was dispensed to each experimental well using a Multidrop Combi dispenser (Thermo Scientific). 6uL of assay media was dispensed to control columns used as reference for 100% compound response. Following incubation for 72 h at 37C, 5% CO2, 2 uL of resazurin was added to each well at a final concentration of 0.5 mM in phosphate buffered saline (PBS) with IGEPAL (Sigma-Aldrich), 0.05% (v/v).; format: functional, organism-based
[2] = tested on: Trypanosoma brucei brucei; assay: GSK_TCAKS: pIC50 Trypanosoma brucei viability assay using luminiscence. Assay plates (1536-well) were prepared. T. brucei cultures were harvested and counted in a CASY cell counter. A parasite suspension was prepared at a final concentration of 5 * 10^4 cells/mL in complete HMI9 medium and 6uL was dispensed to all wells containing compounds using a Multidrop Combi dispenser. 6uL of HMI9 media with 0.4% DMSO were dispensed to control columns. Plates were incubated for 24 h at 37C, 5% CO2 then tempered for 10 min at room temperature. ATP content was quantified by adding 4 uL of CellTiter-Glo Reagent (Promega) according to the manufacturer's instructions. Luminescence was measured using a ViewLux.; format: functional, organism-based; details: Lister 427, CASY
[3] = molecular target: Sterol 14-alpha demethylase (Trypanosoma cruzi (strain CL Brener), UniProt Q7Z1V1); assay: GSK_TCAKS: pIC50 CYP51 from Trypanosoma cruzi.; format: functional
Sequence of Sterol 14-alpha demethylase (Q7Z1V1 whole entry): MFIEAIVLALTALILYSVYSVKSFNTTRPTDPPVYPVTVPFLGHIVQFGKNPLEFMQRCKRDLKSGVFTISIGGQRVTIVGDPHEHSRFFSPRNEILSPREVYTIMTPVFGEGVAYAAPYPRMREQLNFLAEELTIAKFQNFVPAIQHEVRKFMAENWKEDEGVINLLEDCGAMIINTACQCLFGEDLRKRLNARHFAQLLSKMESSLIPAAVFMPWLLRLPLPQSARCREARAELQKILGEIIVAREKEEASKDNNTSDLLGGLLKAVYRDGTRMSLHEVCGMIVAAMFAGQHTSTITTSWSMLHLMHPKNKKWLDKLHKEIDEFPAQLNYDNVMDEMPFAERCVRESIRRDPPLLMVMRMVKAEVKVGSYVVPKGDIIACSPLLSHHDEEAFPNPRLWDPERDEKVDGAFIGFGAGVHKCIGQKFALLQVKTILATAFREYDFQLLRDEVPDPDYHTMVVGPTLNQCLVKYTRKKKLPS

[4] = tested on: Trypanosoma cruzi; assay: GSK_TCAKS: pIC50 Trypanosoma cruzi viability assay using beta-GAL activity. This assay was run at single shot at 5uM compound concentration per well. The biological reagents consisted of NIH-3T3 host cells and trypomastigotes parasitic cells; both cell types were set to a 3.3 * 10^5 cells/mL dilution in assay DMEM by means of a CASY cell counter device using a 60um capillary. 6 uL of the mixture were dispensed per well (about 1 * 10^3 host-cells and 1 * 10^3 parasites) with a Multidrop Combi dispenser. […] In all wells, the percentage of DMSO never exceeded 0.5%. Plates incubated for four days at 37C, 5% CO2. The substrate used for the assay fluorescence intensity (FLINT) readout was resorufin-beta-D-galactopiranoside (Sigma-Aldrich) at 5uM per well. It was diluted in PBS supplemented with the soft detergent Igepal (Fluka).; format: functional, organism-based, Mus musculus; details: Tulahuen, NIH3T3
[5] = tested on: Trypanosoma cruzi; assay: (§1) GSK_TCAKS: pIC50 H2C9 Imaging: H9c2 Host Cardiomyocytes. […] Cells were then washed once with PBS before infection. T. cruzi trypomastigotes, collected at days 5 to 8 after infection from LLC-MK2 parasite infected cultures, were allowed to swim out for 4h at 37C from a centrifuged pellet (2,500 rpm/10 min/room temperature). Trypomastigotes were then collected and counted in a CASY Cell Counter. Trypomastigotes, in supplemented DMEM, were added to H9c2 cultures in a multiplicity of infection of 1 and incubated for 18 h. Cells were washed once with PBS before incubation of the infected H9c2 monolayer with trypsin (Life-Technologies) to detach cells from the flask. Cells were counted in a CASY Cell Counter using a 150 um capillary and their density set at 5 * 10^4 cells per mL in supplemented assay DMEM. Infected H9c2 were dispensed into 384-well poly-lysine coated assay plates at 50uL per well using a Multidrop Combi dispenser. After seeding them, the plates were incubated at 37C, 5% CO2 for 72h. Cultures were then fixed and stained by addition of 50 uL of a solution containing 8% formaldehyde and 4 uM DRAQ5 DNA dye (BioStatus, UK) per well. […] Five images were collected per well for reliable statistical analysis. Automated image analysis was performed with a script developed on Acapella High Content Imaging and Analysis Software (PerkinElmer). Output: Number of H9c2 Host Cardiomyocytes nuclei to determine drug-related cytotoxicity.; format: functional, organism-based, Rattus norvegicus; details: H9c2, 4 h
[6] = tested on: Leishmania donovani; assay: GSK_TCAKS: pIC50 Leishmania donovani Imaging: Amastigotes/Macrophages. Assay plates (384-well) were prepared by adding 250nL of compound to each well. For single shot assay, the final compound concentration was 5 uM. […] Automated image analysis was performed with a script developed on Acapella High Content Imaging and Analysis Software (PerkinElmer). Output: Average number of amastigotes per macrophage cell were reported for each well.; format: functional, organism-based, Homo sapiens; details: THP-1
[7] = tested on: Leishmania donovani; assay: GSK_TCAKS: pIC50 Leishmania donovani Imaging: THP-1 Host Macrophages. Assay plates (384-well) were prepared by adding 250nL of compound to each well. For single shot assay, the final compound concentration was 5 uM. […] Automated image analysis was performed with a script developed on Acapella High Content Imaging and Analysis Software (PerkinElmer). Output: THP-1 cell count were reported for each well.; format: functional, organism-based, Homo sapiens
[8] = tested on: Trypanosoma cruzi; assay: as §1, with “Trypanosoma cruzi” for “H2C9”, “Infected Cells.” for “H9c2 Host Cardiomyocytes.”, “percentage” for “Number”, “infected cells per well as a second infection marker.” for “H9c2 Host Cardiomyocytes nuclei to determine drug-related cytotoxicity.”; format: functional, organism-based, Rattus norvegicus; details: H9c2, 4 h
[9] = tested on: Trypanosoma cruzi; assay: as §1, with “Trypanosoma cruzi” for “H2C9”, “Amastigotes/Cell.” for “H9c2 Host Cardiomyocytes.”, “number” for “Number”, “amastigotes per cell as infection level measurement.” for “H9c2 Host Cardiomyocytes nuclei to determine drug-related cytotoxicity.”; format: functional, organism-based, Rattus norvegicus; details: H9c2, 4 h
[10] = tested on: Leishmania donovani; assay: GSK_TCAKS: pIC50 Leishmania donovani Imaging: Infected Macrophages. Assay plates (384-well) were prepared by adding 250nL of compound to each well. For single shot assay, the final compound concentration was 5 uM. […] Automated image analysis was performed with a script developed on Acapella High Content Imaging and Analysis Software (PerkinElmer). Output: Percent of infected macrophage cells were reported for each well.; format: functional, organism-based, Homo sapiens; details: THP-1
[11] = GSK_TCAKS: pIC50 HepG2 human cell line viability assay using luminiscence. […] Seeding density was checked to ensure that new mono-layers were not more than 50% confluent at the time of harvesting. Cell suspension was added to 500 mL of the same medium at a final density of 1.2 * 10^5 cells/mL. This cell suspension was dispensed (25 uL, 3000 cells per well) into 384-well clear-bottom plates using a Multidrop Combi dispenser. Prior to addition of the cell suspension, the screening compounds (250 nL) were pre-dispensed into the plates with an Echo liquid handler. Plates were incubated for 48 h at 37C, 5% CO2. After incubation, plates equilibrated at room temperature for 30 min before proceeding to develop the luminescent signal. The signal developer, CellTiter-Glo Reagent, was allowed to equilibrate at room temperature for 30 min and added to the plates (25uL per well) using a Multidrop Combi dispenser. Plates were left for 10 min at room temperature for stabilization and then read using a ViewLux.; format: toxicity, cell-based
[12] = tested on: Trypanosoma brucei brucei; assay: GSK_TCAKS: pIC50 Trypanosoma brucei viability assay using fluorescence intensity. Assay plates (1536-well) were prepared by dispensing 25nL of compound solution per well using an Echo acoustic dispenser (Labcyte).; format: functional, organism-based; details: Lister 427, 2 h

Compound | IC50 [1] | IC50 [2] | IC50 [3] | IC50 [4] | IC50 [5] | IC50 [6] | IC50 [7] | IC50 [8] | IC50 [9] | IC50 [10] | IC50 at 48 h [11] | IC50 [12]
O=C(Nc1nc(-c2ccccn2)cs1)c1ccccc1-n1cnnn1 | 3.16 µM | 0.631 µM | > 100 µM | 3.55 µM | 5.01 µM | 3.98 µM | 5.01 µM | 3.16 µM | 2 µM | 6.31 µM | 1.58 µM | 0.631 µM
COc1ccc(S(=O)(=O)Nc2ccc(C(=O)Nc3nc(-c4ccccn4)cs3)cc2)cc1 | 1 µM | 0.631 µM | 0.398 µM | 0.891 µM | 6.31 µM | 0.158 µM | 10 µM | 0.794 µM | 0.631 µM | 0.398 µM | 63.1 µM | 0.794 µM
COc1cccc2sc(CN(C)C(=O)C3CNCCN3c3ccc(F)cc3)c(C)c12 (configuration not stated) | 31.6 µM | 0.251 µM | 0.251 µM | 0.398 µM | 7.94 µM | 3.98 µM | 12.6 µM | 0.2 µM | 0.158 µM | 6.31 µM | 12.6 µM | 0.158 µM
CCCCCNC(=O)c1c[nH]c2ccc(S(=O)(=O)N(C)c3ccc(OCC)cc3)cc2c1=O | > 50.1 µM | 0.251 µM | 1.58 µM | 31.6 µM | > 50.1 µM | > 50.1 µM | > 50.1 µM | > 50.1 µM | > 50.1 µM | > 50.1 µM | > 100 µM | 0.316 µM
CCOc1ccc2nc(NC(=O)c3ccc([N+](=O)[O-])s3)sc2c1 | 2.51 µM | 2.51 µM | > 100 µM | 1.78 µM | 10 µM | 5.01 µM | > 50.1 µM | 1.26 µM | 1 µM | 6.31 µM | 31.6 µM | 1.26 µM
O=C(NCC(c1cccs1)N1CCOCC1)c1ccc([N+](=O)[O-])o1 (configuration not stated) | 31.6 µM | 0.316 µM | 10 µM | 3.16 µM | 5.01 µM | 15.8 µM | 25.1 µM | 15.8 µM | 15.8 µM | 25.1 µM | 20 µM | 0.316 µM
CCN(CC)c1ncc(C(=O)c2ccc([N+](=O)[O-])o2)s1 | 5.01 µM | 0.398 µM | 39.8 µM | 3.98 µM | 5.01 µM | 10 µM | 6.31 µM | 12.6 µM | 7.94 µM | 10 µM | 15.8 µM | 0.1 µM
O=C(Nc1nc(-c2ccccn2)cs1)C1CCc2ccccc2C1 (configuration not stated) | 5.01 µM | 3.16 µM | 25.1 µM | 2 µM | 3.98 µM | 0.398 µM | 7.94 µM | 2.51 µM | 2 µM | 0.631 µM | 39.8 µM | 3.16 µM
COc1ccc(-c2cnc(NC(=O)c3ccc(F)cc3)n2C)cc1 | 3.16 µM | 3.16 µM | 10 µM | 2.51 µM | > 50.1 µM | 0.501 µM | > 50.1 µM | 5.01 µM | 2 µM | 1.26 µM | > 100 µM | 1.26 µM
O=C(O)[C@H]1C[C@@H]1c1ccc(-c2ccc(CN(CCc3ccccn3)C(=O)C3CCC3)cc2)cc1 | 25.1 µM | 0.794 µM | 20 µM | > 50.1 µM | > 50.1 µM | > 50.1 µM | > 50.1 µM | 31.6 µM | 31.6 µM | > 50.1 µM | > 100 µM | 0.631 µM
CN(C)CCN(C)Cc1ccc(Cl)cc1NS(=O)(=O)c1ccc(Cl)c(Cl)c1 | 5.01 µM | 3.98 µM | 31.6 µM | 1.12 µM | 5.01 µM | 3.98 µM | 31.6 µM | 2 µM | 2 µM | 6.31 µM | 31.6 µM | 7.94 µM
